Earlier results, collected in patent publication US6821523B2, “Topical administration of pharmacologically active bases in the treatment of warts” (Dermatrends, Inc., priority 2002, dated 2004).

Tests used:
cutaneous warts = conditions: for efficacy in words: survey of clinical trials, local wart treatment

Compound	efficacy in words (cutaneous warts)	pH of Aqueous Solution, alkalinity in words	further results
O=c1[nH]cc(F)c(=O)[nH]1 [5-fluorouracil]	weak at best	–	–
O=C(O)c1ccccc1O [salicylic acid]	–	–	cure rates (cutaneous warts; simple topical treatments, vs 48% for placebos): about 75%
O=B[O-].[Na+] [Sodium metaborate]	–	Strongly alkaline	–
O=P([O-])([O-])O.[K+].[K+] [Potassium phosphate, dibasic]	–	Aqueous solution is slightly alkaline	–
O.O.O.O.O.O.O.O.O.O.O.O.O=P([O-])([O-])[O-].[Na+].[Na+].[Na+] [Sodium phosphate, tribasic dodecahydrate]	–	–	pH of Aqueous Solution (concentration) (1.0% (1%)): 11.9 (1.0%)
bleomycin	weak at best	–	–
